Reference: patent US20120022121A1, “INDOLES, DERIVATIVES AND ANALOGS THEREOF AND USES THEREFOR” (priority 2007, published 2012)

Experiments:
[1] = tested on: PC-3; assay: Cell viability SRB assay, 96 h; type: cell-based; conditions: Homo sapiens, PC-3, 96 h
Protocol: (§1) Cell viability (LNCaP, PC-3 prostate, DU145, PPC-1, and TSU-Pr1 prostate cancer cell lines, HT-29 colon cancer cell line, and MCF-7 breast cancer cell line) was quantitated using the sulforhodamine B (SRB) assay after 96 h coincubation with different concentrations of compound in 96-well plates. Cell viability of leukemia cells (K562 and doxorubicin-resistant K562/Dox) was quantitated by MTT assay after 96 h coincubation with different concentrations of compound in 96-well plates. Drug-induced apoptosis was determined by anti-histone ELISA assay and DNA laddering. Cell cycle progression was assessed by propidium iodide staining and fluorescence-activated cell sorting (FACS) analysis. In vitro tubulin polymerization assay was determined by CytoDYNAMIX ScreenTM3 (CDS-03) kits according to the manufacturer's instructions. Anti-apoptosis protein (Bcl-2 and Bcl-xl) and pro-apoptosis protein (Bax) were examined in LNCaP and PC-3 after 24 h incubation with different concentrations of compound 13 by Western blot assay. In vivo PC-3 xenograft studies were conducted by i.v. dosing of 50 mg/kg, 100 mg/kg and 150 mg/kg for 2 weeks.
(§2) Cells were plated in 96-well plates at a density of 800-5,000 cells/well, depending on the cell line, in their required growth media containing 10% fetal bovine serum. Preliminary studies were performed with each cell line using a variety of cell densities and incubation times to determine appropriate seeding densities. The compound of interest was dissolved in DMSO, diluted in cell culture medium (final DMSO concentration was less than 0.5% v/v), and added to quadruplicate wells at final concentrations ranging from 0 to 100 μM. Control wells to which only drug-free vehicle was added were included as negative controls.
(§3) Cells were incubated for 96 hour at 37° C. in a humidified atmosphere containing 5% carbon dioxide.
(§4) Cells were stained with SRB solution. […] WinNonlin was provided by a Pharsight Academic License to The Ohio State University.

[2] = tested on: DU-145; assay: Cell viability SRB assay, 96 h; type: cell-based; conditions: Homo sapiens, DU-145, 96 h
Protocol: as §1, §2, §3, §4

[3] = tested on: HT-29; assay: Cell viability SRB assay, 96 h; type: cell-based; conditions: Homo sapiens, HT-29, 96 h
Protocol: as §1, §2, §3, §4

[4] = tested on: PPC-1; assay: Cell viability SRB assay, 96 h; type: cell-based; conditions: Homo sapiens, PPC-1, 96 h
Protocol: as §1, §2, §3, §4

[5] = tested on: LNCaP; assay: Cell viability SRB assay, 96 h; type: cell-based; conditions: Homo sapiens
Protocol: as §1, §2, §3, §4

[6] = tested on: TSU; assay: Cell viability SRB assay, 96 h; type: cell-based; conditions: Homo sapiens, TSU (TSU-Pr1)
Protocol: as §1, §2, §3, §4

[7] = tested on: MCF-7; assay: Cell viability SRB assay, 96 h; type: cell-based; conditions: Homo sapiens, MCF7; MCF-7, 96 h
Protocol: as §1, §2, §3, §4

[8] = tested on: PC-3; assay: Growth inhibition assay (SRB, 96 h); type: cell-based, human; conditions: Homo sapiens, PC-3, 96 h
Excerpt: (§5) MTT (3-(4,5-dimethylthiazol-2-yl)-2,5-diphenyltetrazolium bromide) assay was also used for the leukemia cell lines. […] Cells were stained with SRB solution or MTT solution.

[9] = tested on: K562/Dox; assay: Growth inhibition assay (MTT, 96 h); type: cell-based, human
Excerpt: as §5

[10] = tested on: K562; assay: Growth inhibition assay (MTT, 96 h); type: cell-based; conditions: Homo sapiens, K562 (parental)
Excerpt: as §5

[11] = tested on: HEK293-MRP1; assay: Growth inhibition assay (96 h); type: cell-based, human; conditions: HEK293-MRP1 vs HEK293-pcDNA3.1
[12] = tested on: MRP1 (over-expressed in the cells); assay: Growth inhibition assay (96 h); type: cell-based, human; conditions: human, HEK293 cells over-expressing MRP1 (HEK293-MRP1); HEK293-MRP1, MRP1 over-expressed, 96 h
[13] = tested on: MES-SA/DX5 xenografts; assay: In vivo antitumor efficacy, MES-SA/DX5 xenograft; conditions: MES-SA/DX5 xenograft, 5 mg/kg, q2d, i.p.
Protocol: (§6) The control group was treated with vehicle (10% DMSO in PEG300).

[14] = tested on: PC-3 cells; assay: Cell cycle analysis (PI staining, FACS); type: cell-based, human; conditions: Homo sapiens; PC-3, 24 h, 0.1 nM to 1 μM; read-out: EC50 of cell cycle arrest in G2M phase
Protocol: Cell cycle distribution was determined by propidium iodide (PI) staining. Treated cells were washed with PBS and fixed with 70% ice-cold ethanol overnight. Fixed cells were then stained with 20 μg/mL of PI in the presence of RNase A (300 μg/mL) at 37° C. for 30 min. Cell cycle distribution was analyzed by fluorescence-activated cell sorting (FACS).

[15] = tested on: MES-SA xenografts; assay: In vivo antitumor efficacy, MES-SA xenograft; parameters: species or system mice; conditions: 5 mg/kg, q2d, i.p.
Protocol: as §6

[16] = tested on: human cancer cell lines from prostate, colon, breast, and bladder; assay: Cell proliferation by SRB assay, panel of cell lines; type: cell-based; conditions: read-out: IC50 values, range over cell lines
Protocol: as §5
Cell proliferation was measured by SRB assay.

[17] = tested on: HEK293-pcDNA3.1; assay: Growth inhibition assay (96 h); type: cell-based, human; conditions: Homo sapiens, HEK293-pcDNA3.1 (control for MRP)
Excerpt: as §5

[18] = tested on: MES-SA/DX5; assay: Growth inhibition assay (96 h); type: cell-based, human; conditions: MES-SA/DX5 vs MES-SA (P-gp)
Excerpt: as §5

[19] = tested on: MRP2 (over-expressed in the cells); assay: Growth inhibition assay (96 h); type: cell-based, human; conditions: human, HEK293 cells over-expressing MRP2 (HEK293-MRP2); HEK293-MRP2, MRP2 over-expressed, 96 h
[20] = tested on: HEK293-MRP2; assay: Growth inhibition assay (96 h); type: cell-based, human; conditions: HEK293-MRP2 vs HEK293-pcDNA3.1
[21] = tested on: PC-3 cells; assay: Indirect immunofluorescence microscopy of microtubules; type: cell-based, human; conditions: 24 h, anti-α-tubulin-FITC
Protocol: PC-3 cells were plated on poly-D-lysine coated glass cover slips in 6-well plates (5×10^4 cells/well) the day before treatment. After cells were incubated with cytotoxic agents at 37° C. for 24 h, cells were fixed on the cover slips with 4% formaldehyde in PBS for 10 min and permeabilized by 2% Triton-X in PBS for 5 min at rt. Fixed cells were blocked with 3% bovine serum albumin in TBST for 30 min and incubated with anti-α-tubulin-FITC antibody (1:100 dilution) at 4° C. overnight. Cover slips were mounted on slides using mounting medium with 4′,6-diamidino-2-phenylindole (DAPI), followed by microscopic analysis with a Zeiss Axioplan 2 fluorescent microscope (Carl Zeiss, Thornwood, N.Y.). Images were acquired with a Zeiss Axiocam HRc, using Zeiss AxioVision.

[22] = tested on: HT-29; assay: Growth inhibition assay (SRB, 96 h); type: cell-based; conditions: Homo sapiens, HT-29, 96 h
Excerpt: as §5

[23] = tested on: TSU-Pr1; assay: Growth inhibition assay (SRB, 96 h); type: cell-based; conditions: Homo sapiens, TSU-Pr1, 96 h
Excerpt: as §5

[24] = tested on: MCF-7; assay: Growth inhibition assay (SRB, 96 h); type: cell-based; conditions: Homo sapiens, MCF7; MCF-7, 96 h
Excerpt: as §5

[25] = tested on: PC-3 xenografts; assay: In vivo antitumor efficacy, PC-3 xenograft; conditions: 5 mg/kg
[26] = tested on: K562/Dox; assay: Cell viability MTT assay, 96 h; type: cell-based; conditions: Homo sapiens, doxorubicin-resistant
Protocol: (§7) Cells were seeded in 96-well plates and incubated with different concentrations of compound 13, 68 or other anticancer drugs for 96 h. Cell viability was quantitated by MTT assay. […] Table 4 is a comparison of the IC50 of compounds 13, 68 and other anticancer drugs in the K562 and doxorubicin-resistant K562/DOX cell lines.

[27] = tested on: K562; assay: Cell viability MTT assay, 96 h; type: cell-based; conditions: Homo sapiens
Protocol: as §7

[28] = Rotarod performance; type: in vivo, ICR mice; conditions: 0.5 mg/kg i.p. q2d
Protocol: The training and rotarod test was conducted as described previously. Briefly, during the training phase for 2 consecutive days (3 trials/day), mice (10 mice/group) were trained to run in a rotarod apparatus without falling at a constant speed (12 rpm) for a maximum of 2 min. For the rotarod performance test, duration of each trial was less than 5 min. […] Tests were performed for 2 weeks (2 days/week). The animals were tested in three trials per day with an intertrial interval of 30 min. Animal performance was recorded as the average elapsed time for the mice to fall off.

COc1ccc(C(=O)c2cccc(-c3cc4ccccc4[nH]3)c2)cc1OC [Compound 83, (3,4-Dimethoxy-phenyl)-[3-(1H-indol-2-yl)-phenyl]-methanone]
IC50 [1]: 69 ± 12 nM
IC50 [2]: 131 nM
IC50 [3]: 119 nM
IC50 [4]: 40 nM
IC50 [5]: 51 nM
IC50 [6]: 44 nM
IC50 [7]: 43 nM

COc1cc(C(=O)c2cccc(-c3cc4cc(F)ccc4[nH]3)c2)cc(OC)c1OC [Compound 90, [3-(5-Fluoro-1H-indol-2-yl)-phenyl]-(3,4,5-trimethoxy-phenyl)-methanone]
IC50 [1]: 31 ± 4 nM
IC50 [2]: 28 nM
IC50 [4]: 28 nM
IC50 [5]: 32 nM
IC50 [7]: 39 nM

CC(=O)O[C@@]12CO[C@@H]1C[C@H](O)[C@@]1(C)C(=O)[C@H](O)C3=C(C)[C@@H](OC(=O)[C@H](O)[C@@H](NC(=O)OC(C)(C)C)c4ccccc4)C[C@@](O)([C@@H](OC(=O)c4ccccc4)[C@H]21)C3(C)C [Docetaxel]
IC50 [8]: 6 nM
IC50 ([9]; Homo sapiens, K562/Dox, P-gp over-expressed, 96 h): 548 ± 76 nM
resistance factor (ratio of IC50 resistant subline to parental cell line) ([9]; K562/Dox vs K562 (P-gp)): (203)
IC50 [10]: 2.7 ± 1 nM
resistance factor (ratio of IC50 resistant subline to parental cell line) [11]: (7.2)
resistance factor (ratio of IC50 resistant subline to parental cell line) ([11]; listed as docetaxel): 7.2
IC50 at 96 h [12]: 31.3 ± 5 nM
TGI (tumor growth inhibition) [13]: 9%
EC50 [14]: 14 nM
TGI (tumor growth inhibition) [15]: 54%
IC50 [16]: 1.1 to 6.3 nM
IC50 [17]: 4.4 ± 2 nM
resistance factor (ratio of IC50 resistant subline to parental cell line) [18]: (13)
IC50 at 96 h [19]: 33.1 ± 4 nM
resistance factor (ratio of IC50 resistant subline to parental cell line) [20]: (7.6)
resistance factor (ratio of IC50 resistant subline to parental cell line) ([20]; listed as docetaxel): 7.6
microtubule changes by immunofluorescence [21]: stabilization of microtubules
IC50 [22]: 4.1 ± 0.2 nM
IC50 [23]: 2.6 ± 0.9 nM
IC50 [24]: 3.8 ± 0.8 nM
end of study survival rate ([25]; PC-3 xenograft, 2 days/week): less than 30%
mice survived after 3 weeks ([25]; male, nu/nu, mouse, in vivo, 3 weeks): 70%

COc1cccc2c1C(=O)c1c(O)c3c(c(O)c1C2=O)C[C@@](O)(C(=O)CO)C[C@@H]3O[C@H]1C[C@H](N)[C@H](O)[C@H](C)O1 [Doxirubicin]
IC50 [26]: 859 ± 26.8 nM
IC50 [27]: 27.1 ± 5.5 nM

CC[C@]1(O)C[C@H]2CN(CCc3c([nH]c4ccccc34)[C@@](C(=O)OC)(c3cc4c(cc3OC)N(C=O)[C@H]3[C@@](O)(C(=O)OC)[C@H](OC(C)=O)[C@]5(CC)C=CCN6CC[C@]43[C@@H]65)C2)C1 [vincristine]
rotarod performance ([28]; day 4 to day 14): impaired performance
mean time on the rotating rod ([28]; end of 2 weeks (vehicle 151 s)): 104 s
